Experimental data reported in ChEMBL document CHEMBL2062461 (Eur J Med Chem, 2012).

Assays:
[1] = molecular target: T1, Acetylcholinesterase (Homo sapiens, UniProt P22303)
Description: Inhibition of human recombinant AChE using acetylthiocholine substrate preincubated for 5 mins before substrate addition by Ellman's method

[2] = molecular target: Cholinesterase (Homo sapiens, UniProt P06276)
Description: Inhibition of human plasmatic BChE using butylthiocholne substrate preincubated for 5 mins before substrate addition by Ellman's method

[3] = molecular target: T1, Acetylcholinesterase; remark: listed apart in the source
Description: Inhibition of human recombinant AChE assessed as dissociation constant for enzyme-inhibitor complex using acetylthiocholine substrate preincubated for 5 mins before substrate addition by Ellman's method

[4] = molecular target: T1, Acetylcholinesterase; remark: listed apart in the source
Description: Inhibition of human recombinant AChE assessed as dissociation constant for enzyme-inhibitor-substrate complex using acetylthiocholine substrate preincubated for 5 mins before substrate addition by Ellman's method

T1 sequence (P22303 whole entry): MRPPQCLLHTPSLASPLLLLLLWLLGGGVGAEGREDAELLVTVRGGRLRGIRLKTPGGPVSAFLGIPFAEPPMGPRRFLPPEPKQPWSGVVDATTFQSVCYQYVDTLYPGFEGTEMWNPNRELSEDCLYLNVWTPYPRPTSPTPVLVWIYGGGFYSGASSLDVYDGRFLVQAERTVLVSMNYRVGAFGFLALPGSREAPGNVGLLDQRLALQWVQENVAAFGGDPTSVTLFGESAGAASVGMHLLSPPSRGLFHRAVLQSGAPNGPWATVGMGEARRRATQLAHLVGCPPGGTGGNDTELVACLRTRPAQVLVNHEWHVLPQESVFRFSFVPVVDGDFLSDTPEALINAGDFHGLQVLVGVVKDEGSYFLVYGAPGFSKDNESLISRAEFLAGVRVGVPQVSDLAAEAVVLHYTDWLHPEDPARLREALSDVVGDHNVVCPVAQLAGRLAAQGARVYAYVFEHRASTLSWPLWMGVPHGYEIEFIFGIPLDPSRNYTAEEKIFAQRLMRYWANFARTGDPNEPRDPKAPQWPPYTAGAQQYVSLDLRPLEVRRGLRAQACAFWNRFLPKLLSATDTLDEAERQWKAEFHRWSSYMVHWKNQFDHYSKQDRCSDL
Chain of Cholinesterase (P06276 whole entry): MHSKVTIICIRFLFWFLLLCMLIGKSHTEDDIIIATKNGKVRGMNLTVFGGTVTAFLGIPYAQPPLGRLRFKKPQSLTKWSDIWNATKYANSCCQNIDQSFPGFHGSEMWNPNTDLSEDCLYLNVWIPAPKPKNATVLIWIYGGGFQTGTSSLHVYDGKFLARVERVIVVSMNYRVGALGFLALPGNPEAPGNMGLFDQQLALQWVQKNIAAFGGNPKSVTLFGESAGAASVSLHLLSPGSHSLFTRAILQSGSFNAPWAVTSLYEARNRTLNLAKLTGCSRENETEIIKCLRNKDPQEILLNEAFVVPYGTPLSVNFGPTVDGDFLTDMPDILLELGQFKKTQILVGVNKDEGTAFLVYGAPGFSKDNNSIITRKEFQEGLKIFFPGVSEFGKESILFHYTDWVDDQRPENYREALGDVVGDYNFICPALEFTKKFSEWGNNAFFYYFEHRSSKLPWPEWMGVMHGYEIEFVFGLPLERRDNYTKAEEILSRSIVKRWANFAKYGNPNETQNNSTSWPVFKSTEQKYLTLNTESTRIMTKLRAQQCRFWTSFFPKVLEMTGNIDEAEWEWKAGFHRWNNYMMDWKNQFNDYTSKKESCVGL

Row | Compound | IC50 [1] [nM] | IC50 [2] [nM] | Ki [3] [nM] | Ki [4] [nM]
1 | O=C(CCN1CCCCC1)N1CCN(CCNc2c3c(nc4ccccc24)CCCC3)CC1 | 51.7 | 77.8 | 16.8 | 76.1
2 | CN(CCC(=O)N1CCN(CCNc2c3c(nc4ccccc24)CCCC3)CC1)C1CCCCC1 | 14.9 | 63.7 | 0.38 | 0.318
3 | CCN(CCC(=O)N1CCN(CCNc2c3c(nc4ccccc24)CCCC3)CC1)C1CCCCC1 | 4.97 | 41.2 | 1.35 | 3.73
4 | CN(CCC(=O)N1CCN(CCNc2c3c(nc4ccccc24)CCCC3)CC1)c1ccccc1 | 70.3 | 33.7 | 13.7 | 85.5
5 | CN(CCCN1CCN(CCNc2c3c(nc4ccccc24)CCCC3)CC1)C1CCCCC1 | 40.7 | 137 | 10.3 | 47.6
6 | CCN(CCCN1CCN(CCNc2c3c(nc4ccccc24)CCCC3)CC1)C1CCCCC1 | 194 | 126 |  | 
7 | CN(CCCN1CCN(CCNc2c3c(nc4ccccc24)CCCC3)CC1)c1ccccc1 | 84.8 | 211 | 80 | 24.7
8 | O=C(CCNCCNc1c2c(nc3ccccc13)CCCC2)N1CCN(CCNc2c3c(nc4ccccc24)CCCC3)CC1 | 4.49 | 1520 |  | 
